According to US20020128231A1 (priority 2000, published 2002):

Legend:
[1] = test system: MDR1-expressing NIH 3T3 cells; experiment: Cytotoxicity (MTT) assay: modulation of drug cytotoxicity in multidrug resistant cells; settings: compound 5 μM; 50 nM doxorubicin; 72 hours; MTT
Experimental: Cytotoxicity assays were performed with many of the compounds of Formula I to verify their usefulness as inhibitors of P-gp.
Parental NIH3T3 Swiss mouse embryo cell line was obtained from American Type Culture Collection and was grown in Dulbecco's Modified Eagles Medium supplemented with 4.5 g/L glucose, 10% fetal bovine serum, 2 mM L-glutamine, and 0.01 mg/ml gentamicin. […] All cells were maintained in a humidified atmosphere with 5% CO2 at 37° C.
Parental and MDR1-expressing NIH 3T3 cells were plated at a density of 2.5-3.0×10^3 cells/well in 96-well microtiter plates and were exposed to 50 nM of doxoriubicin, 7.5 nM vinblastine, 75 nM colchicine or 300 nM paclitaxel for 72 hours. Cell viability was determined with the colorimetric MTT (3-(4,5-dimethylthiazol-2-yl)-2,5-diphenyl tetrazolium) assay as previously described (Mosmann T., J. Immunol. Methods, 65: 55-63 (1983); Hansen M. B. et al., J. Immunol. Methods, 119: 203-210 (1989)) and the absorbance was measured at 570 nm.

P-glycoprotein = P-glycoprotein (Homo sapiens, UniProt P08183); experiment: Rhodamine 123 transport assay across HCT-8 cell monolayers; settings: compound 10 μM, Rh123 15 μM, HCT-8 cells; for inhibition at 10 μM: human, HCT-8 cell monolayers in Transwell dishes, probe Rhodamine 123 (15 μM), % Inhibition of R123 Transport
Sequence of P-glycoprotein (P08183 whole entry): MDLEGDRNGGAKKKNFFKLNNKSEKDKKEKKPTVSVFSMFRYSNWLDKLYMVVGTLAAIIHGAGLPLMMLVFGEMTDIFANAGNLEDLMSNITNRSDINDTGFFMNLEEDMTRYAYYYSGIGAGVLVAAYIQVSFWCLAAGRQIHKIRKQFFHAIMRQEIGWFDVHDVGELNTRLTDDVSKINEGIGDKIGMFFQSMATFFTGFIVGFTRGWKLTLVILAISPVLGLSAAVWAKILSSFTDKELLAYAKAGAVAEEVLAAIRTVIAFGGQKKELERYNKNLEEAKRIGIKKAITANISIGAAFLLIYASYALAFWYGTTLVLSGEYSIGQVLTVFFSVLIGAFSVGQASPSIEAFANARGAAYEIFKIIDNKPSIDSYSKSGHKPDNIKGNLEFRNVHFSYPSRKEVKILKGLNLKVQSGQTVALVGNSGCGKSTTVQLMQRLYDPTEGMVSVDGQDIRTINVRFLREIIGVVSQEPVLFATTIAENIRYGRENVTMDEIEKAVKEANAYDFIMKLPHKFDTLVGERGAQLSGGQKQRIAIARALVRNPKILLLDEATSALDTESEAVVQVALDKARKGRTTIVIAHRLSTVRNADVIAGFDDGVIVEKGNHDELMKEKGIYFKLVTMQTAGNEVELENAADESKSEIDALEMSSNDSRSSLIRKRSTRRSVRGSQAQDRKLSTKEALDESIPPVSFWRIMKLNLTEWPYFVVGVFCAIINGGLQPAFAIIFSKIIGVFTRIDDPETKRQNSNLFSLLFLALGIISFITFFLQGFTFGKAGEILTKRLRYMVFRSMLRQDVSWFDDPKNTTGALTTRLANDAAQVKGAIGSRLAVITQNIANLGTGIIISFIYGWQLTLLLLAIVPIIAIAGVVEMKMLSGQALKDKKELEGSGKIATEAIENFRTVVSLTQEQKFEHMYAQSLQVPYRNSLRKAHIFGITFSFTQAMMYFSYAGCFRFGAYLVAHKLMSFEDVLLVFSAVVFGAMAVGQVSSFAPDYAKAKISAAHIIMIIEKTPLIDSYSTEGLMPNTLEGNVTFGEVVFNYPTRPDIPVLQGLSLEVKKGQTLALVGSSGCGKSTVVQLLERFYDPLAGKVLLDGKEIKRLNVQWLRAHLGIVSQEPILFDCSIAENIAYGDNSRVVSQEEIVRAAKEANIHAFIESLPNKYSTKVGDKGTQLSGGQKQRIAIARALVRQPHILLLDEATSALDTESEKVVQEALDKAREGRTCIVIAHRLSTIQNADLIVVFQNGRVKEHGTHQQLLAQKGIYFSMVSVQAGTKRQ

SMILES | % Inhibition of R123 Transport (P-glycoprotein) [%] | inhibition at 10 μM (P-glycoprotein) [%] | Modulation of Drug Resistance (percentage increase in doxorubicin cytotoxicity in the presence of the compounds versus in their absence) [1] [%]
COc1ccc(C2c3cc(OC)c(OC)cc3C(CC(=O)N3CCN(c4ccc(C(C)=O)cc4)CC3)C2C(=O)N2CCN(c3ccc(C(C)=O)cc3)CC2)cc1OC (stereo not drawn) [AV-163, 2-[2-[4-(4-acetylphenyl)-piperazin-1-carbonyl]-3-(3,4-dimethoxyphenyl)-5,6-dimethoxy-indan-1-yl]-1[4-(4-acetylphenyl)piperazine-1-yl]-ethanone] |  | 89.7 | 72.55
CCOC(=O)N1CCN(C(=O)CC2c3cc(OC)c(OC)cc3C(c3ccc(OC)c(OC)c3)C2C(=O)N2CCN(C(=O)OCC)CC2)CC1 (stereo not drawn) [AV-174, 4-{2-[3-(3,4-dimethoxyphenyl)-5,6-dimethoxy-2-(piperazine-1-carboxylic acid ethyl ester)-indan-1-yl]-acetyl}-piperazine-1-carboxylic acid ethyl ester] | 23.1 |  | 18.50
COc1ccc(C2c3cc(OC)c(OC)cc3C(CCNS(=O)(=O)c3ccccc3)C2CNS(=O)(=O)c2ccccc2)cc1OC (stereo not drawn) [AV-223, N-{2-[(2-N-methyl)-benzenesulfonamide-3-(3,4-dimethoxyphenyl)-5,6-dimethoxy-indan-1-yl}-ethyl}-benzensulfonamide] | 74.50 |  | 36.55
COc1ccc(C2c3cc(OC)c(OC)cc3C(CCN3CCN(c4ccccc4)CC3)C2CN2CCN(c3ccccc3)CC2)cc1OC (stereo not drawn) [AV-162, 2-[3-(3,4-dimethoxyphenyl)-5,6-dimethoxy-2-(4-phenylpiperazin-1-yl)methyl-indan-1-yl]-1-(4-phenylpiperazin-1-yl)-ethane] |  | 83.1 | 65.83
COc1ccc(C2c3cc(OC)c(OC)cc3C(CC(=O)N3CCN(c4ccc(F)cc4)CC3)C2C(=O)N2CCN(c3ccc(F)cc3)CC2)cc1OC (stereo not drawn) [AV-169, 2-{2-[4-(4-fluorophenyl)-piperazin-1-carbonyl]-3-(3,4-dimethoxyphenyl)-5,6-dimethoxy-indan-1-yl}-1-[4-(4-fluorophenyl)piperazine-1-yl]-ethanone] |  | 77.1 | 71.29
COc1ccc(C2c3cc(OC)c(OC)cc3C(CC(=O)N3CCC(Cc4ccccc4)CC3)C2C(=O)N2CCC(Cc3ccccc3)CC2)cc1OC (stereo not drawn) [AV-159, 2-[2-(4-benzylpiperidine-1-carbonyl)-3-(3,4-dimethoxyphenyl)-5,6-dimethoxy-indan-1-yl]-1-(4-benzylpiperidin-1-yl)-ethanone] |  | 81.4 | 56.06
COc1ccc(C2c3cc(OC)c(OC)cc3C(CC(=O)N3CCN(Cc4ccccc4)CC3)C2C(=O)N2CCN(Cc3ccccc3)CC2)cc1OC (stereo not drawn) [AV-164, 2-[2-(4-benzylpiperazine-1-carbonyl)-3-(3,4-dimethoxyphenyl)-5,6-dimethoxy-indan-1-yl]-1-(4-benzylpiperazine-1-yl)-ethanone] |  | 85.1 | 70.03
COCC1C(CCN2CCN(CC=Cc3ccccc3)CC2)c2cc(OC)c(OC)cc2C1c1ccc(OC)c(OC)c1 (stereo not drawn) [AV-204, 1-{2-[3-(3,4-dimethoxyphenyl)-5,6-dimethoxy-2-methoxymethyl-indan-1-yl]-ethyl}-4-(3-phenylallyl)-piperazine] |  |  | 64.60

Now from value to compound, other results behind:

% Inhibition of R123 Transport (P-glycoprotein) [%] | inhibition at 10 μM (P-glycoprotein) [%] | SMILES | Modulation of Drug Resistance (percentage increase in doxorubicin cytotoxicity in the presence of the compounds versus in their absence) [1] [%]
87.6 |  | COc1ccc(C2c3cc(OC)c(OC)cc3C(CC(=O)N3CCN(c4ccccc4OC)CC3)C2C(=O)N2CCN(c3ccccc3OC)CC2)cc1OC (stereo not drawn) [AV-188, 2-{3-(3,4-dimethoxyphenyl)-5,6-dimethoxy-2-[4-(2-methoxyphenyl)-piperazin-1-carbonyl]-indan-1-yl}-1-[4-(2-methoxy-phenyl)-1-yl]-ethanone] | 75.39
 | 20.2 | CCCCC(CC)CN(CC(CC)CCCC)C(=O)CC1c2cc(OC)c(OC)cc2C(c2ccc(OC)c(OC)c2)C1C(=O)N(CC(CC)CCCC)CC(CC)CCCC (stereo not drawn) [AV-192, 1-{[bis(2-ethylhexyl)carbamoyl]methyl}-3-(3,4-dimethoxyphenyl)-5,6-dimethoxy-indan-2-carboxylic acid bis(2-ethylhexyl) amide] | 19.61
92.03 |  | CCOc1ccc(C2c3cc(OCC)c(OCC)cc3C(CC(=O)N3CCN(c4ccccc4OCC)CC3)C2C(=O)N2CCN(c3ccccc3OCC)CC2)cc1OCC (stereo not drawn) [AV-253] | 19.8
 | 86.4 | COCC1C(CCN2CCN(C(=O)OCc3ccccc3)CC2)c2cc(OC)c(OC)cc2C1c1ccc(OC)c(OC)c1 (stereo not drawn) [AV-200, 4-{2-[3-(3,4-dimethoxyphenyl)-5,6-dimethoxy-2-methoxymethyl-indan-1-yl]-ethyl}-piperazine-1-carboxylic acid benzyl ester] | 61.40
 | 64.9 | COc1ccc(C2c3cc(OC)c(OC)cc3C(CC(=O)N(CC(C)C)CC(C)C)C2C(=O)N(CC(C)C)CC(C)C)cc1OC (stereo not drawn) [AV-191, 1-[(diisobutylcarbamoyl)methyl]-3-(3,4-dimethoxyphenyl)-5,6-dimethoxy-indan-2-carboxylic acid diisobutylamide] | 63.49
 | 11.8 | CCCCCCN(CCCCCC)C(=O)CC1c2cc(OC)c(OC)cc2C(c2ccc(OC)c(OC)c2)C1C(=O)N(CCCCCC)CCCCCC (stereo not drawn) [AV-193, 1-(3,4-dimethoxyphenyl)-3-dihexylcarbamoylmethyl-5,6-dimethoxy-indan-2-carboxylic acid dihexyl amide] | 25.20
18.70 |  | CCCOc1ccc(C2c3cc(OCCC)c(OCCC)cc3C(CC(=O)N3CCN(c4ccccc4OCC)CC3)C2C(=O)N2CCN(c3ccccc3OCC)CC2)cc1OCCC (stereo not drawn) [AV-254, 2-{3-(3,4-Dipopoxy-phenyl)-2-[4-(2-ethoxy-phenyl)-piperazine-1-carbonyl]-5,6-dipropoxy-indan-1-yl}-1-[4-(2-ethoxy-phenyl)-piperazin-1-yl]-ethanone] | 4.1
40.4 |  | COc1ccc(C2c3cc(OC)c(OC)cc3C(CC(=O)N3CCN(C(=O)OC(C)(C)C)CC3)C2C(=O)N2CCN(C(=O)OC(C)(C)C)CC2)cc1OC (stereo not drawn) [AV-180, 4-{2-[3-(3,4-dimethoxyphenyl)-5,6-dimethoxy-2-(piperazine-1-carboxylic acid t-butyl ester)-indan-1-yl]-acetyl}-piperazine-1-carboxylic acid t-butyl ester] | 42.84
 | 11.5 | COCC1C(CCO)c2cc(OC)c(OC)cc2C1c1ccc(OC)c(OC)c1 (stereo not drawn) [AV-176, 2-[3-[3,4-dimethoxyphenyl)-5,6-dimethoxy-2-methoxymethyl-indan-1-yl]-ethanol] | 8.65
